Consider one compound from patent publication US8765775B2, “Anti-angiogenic compounds” (Universitaet Zuerich, priority 2008, dated 2014).

Values joined by “and” are separate entries in the source; they are usually repeats but may differ in a detail not shown here. Equal entries are not always repeated.

The target of assay [1] is T1, EphB4 (Homo sapiens, UniProt P54760).
T1 sequence (P54760 16-987): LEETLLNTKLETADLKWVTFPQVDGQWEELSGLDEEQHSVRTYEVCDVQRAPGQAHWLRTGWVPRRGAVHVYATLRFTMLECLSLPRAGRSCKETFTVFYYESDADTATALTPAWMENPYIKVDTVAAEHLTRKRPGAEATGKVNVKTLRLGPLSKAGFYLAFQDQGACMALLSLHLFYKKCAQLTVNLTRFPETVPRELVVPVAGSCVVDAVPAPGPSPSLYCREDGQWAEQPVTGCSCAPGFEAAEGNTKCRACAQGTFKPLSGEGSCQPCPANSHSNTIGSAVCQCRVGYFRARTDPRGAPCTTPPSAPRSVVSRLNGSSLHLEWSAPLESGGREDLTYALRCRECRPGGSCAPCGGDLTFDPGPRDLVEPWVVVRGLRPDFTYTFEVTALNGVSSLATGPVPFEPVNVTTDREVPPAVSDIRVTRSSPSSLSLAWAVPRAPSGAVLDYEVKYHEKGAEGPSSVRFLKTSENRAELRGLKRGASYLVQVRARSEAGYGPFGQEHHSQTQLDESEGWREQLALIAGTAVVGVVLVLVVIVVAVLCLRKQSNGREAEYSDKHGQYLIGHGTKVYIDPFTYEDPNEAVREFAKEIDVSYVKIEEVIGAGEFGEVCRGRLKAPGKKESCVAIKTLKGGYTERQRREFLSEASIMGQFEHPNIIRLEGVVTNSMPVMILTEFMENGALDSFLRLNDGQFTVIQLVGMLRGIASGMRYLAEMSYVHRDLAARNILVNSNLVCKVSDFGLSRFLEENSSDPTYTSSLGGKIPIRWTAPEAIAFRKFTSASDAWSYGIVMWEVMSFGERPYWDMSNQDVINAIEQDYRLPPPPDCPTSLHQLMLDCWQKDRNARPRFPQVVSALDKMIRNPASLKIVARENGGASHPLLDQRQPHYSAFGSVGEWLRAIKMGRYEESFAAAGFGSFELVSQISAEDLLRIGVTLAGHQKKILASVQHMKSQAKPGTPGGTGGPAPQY
Description: Cerep FRET-based enzymatic assay. It counts as biochemical. The conditions noted are these: ATP 0.75 μM, read-out: Enzymatic assays IC50 Cerep. The text has this: Similar values of IC50 compared to the original FRET-based enzymatic assay (Z'Lyte) are obtained (Table 2).

Assay [2] concerns the target T2, myc-tagged full-length human EphB4 (Homo sapiens, UniProt P54760).
T2 construct: stably transfected with myc-tagged full-length human EphB4; expressed in transfected cells; host or cells: CHO-FRT cells (Flip-In System, Invitrogen)
T2 sequence (P54760 16-987): T1 sequence (P54760 16-987)
Description: Phospho-EphB4 ELISA of CHO cells (EphB4 autophosphorylation). The class given is cell-based. The protocol: Phospho-EphB4 ELISA of CHO cells. The ELISA assay was performed as follows: Chinese hamster ovary (CHO)-FRT cells are stably transfected with myc-tagged full-length human EphB4 according to the Flip-In System protocol (Invitrogen, USA). […] Cells of this clone are preincubated with EphB4 inhibitors for 15 minutes and then stimulated with preclustered ephrinB2-Fc for 45 minutes at 37° C. Cells are lysed, transferred to a 96-well plate coated with anti-myc antibody and incubated overnight at 4° C. After incubation with anti-phosphotyrosine antibody, reactions are developed with BM Blue peroxydase substrate, and autophosphorylation of EphB4 is quantified by measuring absorption at 450 nm.

For assay [3], the target named is T1, EphB4. Description: Panvera Z'Lyte FRET-based enzymatic assay.
Description: In vitro kinase activity was measured using the Panvera Z'Lyte Tyr2 kinase assay PV3191 (Invitrogen, USA), according to the manufacturer's instructions. […] The reaction is performed at room temperature for 1 hour.
Assay [4] has as its target T1, EphB4. Description: Omnia kinetic assay (Omnia Tyr Recombinant Kit KNZ4051). It counts as biochemical. Details: purchased Proqinase, Germany. The protocol:
The data obtained in these experiments are shown in a specific velocity plot (FIG. 2), where the ratio of the initial velocities for the non-inhibited and inhibited reactions at a given ATP concentration (v0/vi in FIG. 2) is plotted versus σ/(1+σ), with σ=[ATP]/Km. […] Kinetic assay. […] Fluorescence progress curves are measured upon excitation at 360 nm and emission at 485 nm. […] Biosource Omnia. […] The assay is run at 30° C. for 1 hour.

For assay [5], the target named is T1, EphB4. Description: IC50 and % inhibition (Table 3). The class given is biochemical. The conditions noted are these: for IC50: repeated determinations.

For the compound `Cn1c(=O)[nH]c(=O)c2c1nc1n(CCCCO)c(-c3ccccc3)cn21` [Compound 2], the IC50 is 6.8 µM at EphB4 [1]; about 1.6 µM against EphB4 [3]; 1.4 µM and 1.8 µM at EphB4 [3] (Enzymatic assays IC50 Z′Lyte, FRET-based, 10 μM ATP, 1% DMSO, room temperature 1 hour); 5.6 µM and 7.9 µM on EphB4 [4] (two experiments, without and with 0.01% Triton X-100, ATP 125 μM, 30° C. 1 hour, read-out: Enzymatic assays IC50 Omnia); 6.7 µM on EphB4 [5] (IC50, Table 3); 8 µM and 7 µM on EphB4 [5] (Table 3, read-out: IC50). Moreover, in assay [2] (20 μM), the “Inhibitory effects on EphB4 autophosphorylation in CHO cells (in words)” value was “only mild inhibitory effects”. Also, the “Cell-based assay percent inhibition” value in assay [2] (in CHO cells, at 20 μM) is on record as “neg”. Besides, at EphB4 [4] (0.01% Triton X-100), the “Sensitivity of inhibition to detergent (in words)” value is “detergent-insensitive inhibition”. Besides, the “Mode of inhibition versus ATP (specific velocity plot)” value at EphB4 [4] (ATP 31.25 to 500 μM, Km 158 μM) is given as “ATP competitive”. The Ki on EphB4 [4] (two experiments, with and without 0.01% Triton X-100, read-out: Ki corresponding to Omnia IC50) is 2.7 µM and 2.9 µM. On EphB4 [5] (C = 10 μM, 10 µM), the “% inhibition at indicated concentration C” value was 67% and 68% and 59% and 64%. The inhibition at 10 µM on EphB4 [5] (C = 10 μM, read-out: % inhibition at indicated concentration C) is 72%.
